Experimental data published in ChEMBL document CHEMBL1150931, “10-Oximeguanacone, the first nitrogenated acetogenin derivative found to be a potent inhibitor of mitochondrial complex I” (J Nat Prod, 1998).

What was measured:
[1] = Inhibition of NADH-oxidase activity of electron transport protein complex 1 in submitochondrial particles of bovine heart; parameters: species or system Bos taurus
[2] = Inhibition of NADH-ubiquinone oxidoreductase activity of electron transport protein complex 1 in submitochondrial particles of bovine heart; parameters: species or system Bos taurus

SMILES	IC50 [1] [nM]	IC50 [2] [nM]
CCCCCCCCCC[C@H](O)[C@H]1CC[C@H]([C@H]2CC[C@H]([C@H](O)CCCC/C(CCCCCCCC3=C[C@H](C)OC3=O)=N\O)O2)O1	0.34	0.68
CCCCCCCCCC[C@H](O)[C@H]1CC[C@H]([C@H]2CC[C@H]([C@H](O)CCCCC(O)CCCCCCCC3=C[C@H](C)OC3=O)O2)O1 (some centres undefined)	0.95	1.9
CCCCCCCCCC[C@H](O)[C@H]1CC[C@H]([C@H]2CC[C@H]([C@H](O)CCCCCCCCCCCCC3=C[C@H](C)OC3=O)O2)O1 [BULLANIN]	0.32	0.44
CCCCCCCCCC[C@H](O)[C@H]1CC[C@H]([C@H]2CC[C@H]([C@H](O)CCCCC(=O)CCCCCCCC3=C[C@H](C)OC3=O)O2)O1 [GUANACONE]	1.52	2.07
CCCCC[C@H](O)CCCC[C@H](O)[C@H]1CC[C@H]([C@H]2CC[C@H]([C@H](O)CCCCCCCCCCCCC3=C[C@H](C)OC3=O)O2)O1 [MOTRILIN]	0.41	0.81
CCCCCCCCCC[C@H](O)[C@@H]1CC[C@H]([C@H]2CC[C@@H]([C@H](O)CCCCCCCC[C@@H](O)CC3=C[C@H](C)OC3=O)O2)O1 [ROLLIMEMBRIN]	0.33	0.83
CCCCCCCCCC[C@H](O)[C@H]1CC[C@H]([C@H]2CC[C@H]([C@H](O)CCCCCCCCCCC(O)CC3=C[C@H](C)OC3=O)O2)O1 (some centres undefined) [rolliniastatin-2]	0.51	0.61
